Assay [1] has as its system KBV1. Nature of the assay: cells. Particulars: for inhibition at 3 µM: KB-V1, 3000 nM; for IC50: 3 days, SRB. It is filed as cell-based. As for the experimental part:
(§1) Cell Survival Assay: Standard Pharmacological Test Procedure. […] Compounds are incubated with cells for 3 days.

The subject of assay [2] is KB cells. Briefly: cells. It is filed as cell-based. Particulars: for IC50: 3 days, SRB. As for the experimental part:
as §1

Assay [3] has as its system KB85. Nature of the assay: cells. It is filed as cell-based. The following applies: for IC50: 3 days, SRB. The protocol: as §1
For assay [4], the system named is bovine microtubule-associated protein (MAP)-rich tubulin. It is filed as biochemical. Particulars: 0.3 uM. The method, boiled down:
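This in vitro polymerization assay used bovine tubulin rich in microtubule-associated proteins, prepared at 1.5 mg/ml in GPEM (PEM buffer containing 1 mM GTP) and cleared by a 12,000×g spin. Tubulin solution (100 μl/well) was dispensed onto duplicate 10 μl test samples. Control wells held 0.3% DMSO. A SpectraMax Plus reader recorded turbidity at 340 nm every minute over 60 min at 24° C.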

In general, inhibition refers to the relative decrease from the control value, in per cent. The low end stands for a response near the control, the high end for a response far below the control. A word on the IC50: it is the concentration that inhibits the measured activity by half. In turn, `CN[C@H](C(=O)N[C@H](C(=O)N(C)[C@H](/C=C(\C)C(=O)N1CCC[C@H]1C(=O)N1CCC[C@H]1C(=O)NCc1ccccc1)C(C)C)C(C)(C)C)C(C)(C)c1cc(C)cc(C)c1` [Example 11, 1-{(2E,4S)-2,5-Dimethyl-4-[methyl(N,β,β,3,5-pentamethyl-L-phenylalanyl-3-methyl-L-valyl)amino]hex-2-enoyl}-L-prolyl-N-benzyl-L-prolinamide] returned an inhibition at 3 µM in assay [1] (Homo sapiens) of 8%. Moreover, the IC50 in assay [2] (Homo sapiens, KB, 72 h) was 0.56 nM; in assay [3] (72 h) it was 24 nM. Besides, the “Tubulin Polym. % inhibition at 0.3 uM” value in assay [4] stood at 41%.
As to `CN[C@H](C(=O)N[C@H](C(=O)N(C)[C@H](/C=C(\C)C(=O)N1CC=C[C@H]1C(=O)OC)C(C)C)C(C)(C)C)C(C)(C)c1ccccc1` [Example 47, N,β,β-trimethyl-L-phenylalanyl-N^1-{(1S,2E)-1-isopropyl-4-[(2S)-2-(methoxycarbonyl)-2,5-dihydro-1H-pyrrol-1-yl]-3-methyl-4-oxobut-2-enyl}-N^1,3-dimethyl-L-valinamide], the IC50 came to 272 nM in assay [1] (Homo sapiens, KB-V1, 72 h); 3.5 nM in assay [2] (Homo sapiens, KB, 72 h); 17 nM in assay [3] (72 h). In addition, the “Tubulin Polym. % inhibition at 0.3 uM” value in assay [4] is listed as 88(2) %.
The compound `CN[C@H](C(=O)N[C@H](C(=O)N(C)[C@H](/C=C(\C)C(=O)N1CCC[C@H]1C(=O)O)C(C)C)C(C)(C)C)C(C)(C)c1ccccc1` [Example 36, N,β,β-trimethyl-L-phenylalanyl-N^1-{(1S,2E)-4-[(2S)-2-carboxypyrrolidin-1-yl]-1-isopropyl-3-methyl-4-oxobut-2-enyl}-N^1,3-dimethyl-L-valinamide] showed an inhibition at 3 µM in assay [1] (Homo sapiens) of 0%. The IC50 is 62 nM in assay [2] (Homo sapiens, KB, 72 h) and 205 nM in assay [3] (72 h). Moreover, the “Tubulin Polym. % inhibition at 0.3 uM” value in assay [4] stood at 97%.
Turning to `CN[C@H](C(=O)N[C@H](C(=O)N(C)[C@H](/C=C(\C)C(=O)N1CCC[C@H]1C(=O)O)C(C)C)C(C)(C)C)C(C)(C)c1cccc(Cl)c1` [Example 24, 3-Chloro-N,β,β-trimethyl-L-phenylalanyl-N^1-{(1S,2E)-4-[(2S)-2-carboxypyrrolidin-1yl]-1-isopropyl-3-methyl-4-oxobut-2-enyl}-N^1,3-dimethyl-L-valinamide], testing at 3 µM in assay [1] (Homo sapiens) gave an inhibition of 17%. The IC50 in assay [2] (Homo sapiens, KB, 72 h) was found to be 62 nM; in assay [3] (72 h) it was 180 nM. Also, the “Tubulin Polym. % inhibition at 0.3 uM” value in assay [4] turned out to be 94%.
For the compound `CN[C@H](C(=O)N[C@H](C(=O)N(C)[C@H](/C=C(\C)C(=O)O)C(C)C)C(C)(C)C)C1(C)CCCc2ccccc21` (stereo partly drawn) [Example 59, (2E,4S)-2,5-dimethyl-4-(methyl{3-methyl-N-[(2S)-2-(methylamino)-2-(1-methyl-1,2,3,4-tetrahydro-1-naphthalenyl)ethanoyl]-L-valyl}amino)-2-hexenoic acid], the concentration for half-maximal inhibition (IC50) was 76 nM in assay [1] (Homo sapiens, KB-V1, 72 h); 5.5 nM in assay [2] (Homo sapiens, KB, 72 h); 6.6 nM in assay [3] (72 h). Further, the “Tubulin Polym. % inhibition at 0.3 uM” value in assay [4] is 93%.
As for `CN[C@H](C(=O)N[C@H](C(=O)N(C)[C@H](/C=C(\C)C(=O)N(C)OC)C(C)C)C(C)(C)C)C(C)(C)c1ccccc1` [Example 52, N,β,β-trimethyl-L-phenylalanyl-N^1-{(1S,2E)-1-isopropyl-4-[methoxy(methyl)-amino]-3-methyl-4-oxobut-2-enyl}-N^1,3-dimethyl-L-valinamide], the IC50 in assay [1] (Homo sapiens, KB-V1, 72 h) stood at 392 nM; in assay [2] (Homo sapiens, KB, 72 h), 11 nM; in assay [3] (72 h), 47 nM. For the same compound, the “Tubulin Polym. % inhibition at 0.3 uM” value in assay [4] is listed as 86%.
For “N,β,β-trimethyl-L-phenylalanyl-N^1-[(1S,2E)-1-isopropyl-4-((2S)-2-{(1R,2R)-1-methoxy-2-methyl-3-[(4R,5S)-4-methyl-2-oxo-5-phenyl-1,3-oxazolidin-3-yl]-3-oxopropyl}pyrrolidin-1-yl)-3-methyl-4-oxovalinamide [Example 32]”, the IC50 in assay [1] was 636 nM; in assay [2], 12 nM; in assay [3], 45 nM. The “Tubulin Polym. % inhibition at 0.3 uM” value in assay [4] is 99(2) %.
On to `CN[C@@H](C(=O)N[C@H](C(=O)N(C)[C@H](/C=C(\C)C(=O)N1CCOCC1)C(C)C)C(C)(C)C)C(C)(C)c1ccc(C)c(C)c1` [Example 4, N,β,β,3,4-Pentamethyl-D-phenylalanyl-N^1[(1S,2E)-1-isopropyl-3-methyl-4-morpholin-4-yl-4-oxobut-2-enyl]-N^1,3-dimethyl-L-valinamide], for which the inhibition at 3 µM in assay [1] (Homo sapiens) turned out to be 42%. For the same compound, the IC50 worked out at 375 nM in assay [2] (Homo sapiens, KB, 72 h) and 536 nM in assay [3] (72 h). Also, in assay [4], the “Tubulin Polym. % inhibition at 0.3 uM” value is on record as 61%.
As for `CN[C@H](C(=O)N[C@H](C(=O)N(C)[C@H](/C=C/P(=O)(O)O)C(C)C)C(C)(C)C)C(C)(C)c1ccccc1` [Example 70, N,β,β-trimethyl-L-phenylalanyl-N^1-[(1S,2E)-1-isopropyl-3-phosphonoprop-2-enyl]N^1,3-dimethyl-L-valinamide], the inhibition at 3 µM was 3% in assay [1] (Homo sapiens); 0% in assay [2] (Homo sapiens, 72 h, 3000 nM); 0% in assay [3] (3000 nM). Besides, the “Tubulin Polym. % inhibition at 0.3 uM” value in assay [4] is 69%.
Turning to `CN[C@H](C(=O)N[C@H](C(=O)N(C)[C@H](/C=C(\C)C(=O)N1CCC[C@H]1C(=O)O)C(C)C)C(C)(C)C)C(C)(C)c1cc(C)cc(C)c1` [Example 20, N,β,β,3,5-Pentamethyl-L-phenylalanyl-N^1-{(1S,2E)-4-[(2S)-2-carboxypyrrolidin-1-yl]-1-isopropyl-3-methyl-4-oxobut-2-enyl}-N^1,3-dimethyl-L-valinamide], in assay [1] (Homo sapiens), the inhibition at 3 µM amounted to 3%. Moreover, the IC50 in assay [2] (Homo sapiens, KB, 72 h) was found to be 82 nM; in assay [3] (72 h) it was 664 nM. In assay [4], the “Tubulin Polym. % inhibition at 0.3 uM” value was 80%.
The compound `CN[C@H](C(=O)N[C@H](C(=O)N(C)[C@H](/C=C1\NC(=O)NC1=O)C(C)C)C(C)(C)C)C(C)(C)c1ccccc1` [Example 85, N,β,β-trimethyl-L-phenylalanyl-N^1-{(1S)-1-[(Z)-(2,5-dioxo-4-imidazolidinylidene)methyl]-2-methylpropyl}-N^1,3-dimethyl-L-valinamide] returned an inhibition at 3 µM in assay [1] (Homo sapiens) of 10%. Also, the IC50 in assay [2] (Homo sapiens, KB, 72 h) came to 1070 nM; in assay [3] (72 h), 1740 nM. In addition, the “Tubulin Polym. % inhibition at 0.3 uM” value in assay [4] is 59%.
The compound `C/C(=C\[C@H](C(C)C)N(C)C(=O)[C@@H](NC(=O)C1N(C)CCSC1(C)C)C(C)(C)C)C(=O)O` (stereo partly drawn) [Example 58, (2E,4S)-2,5-dimethyl-4-(methyl{3-methyl-N-[(2,2,4-trimethylthiomorpholin-3-yl)carbonyl]-L-valyl}amino)hex-2-enoic acid] displayed an inhibition at 3 µM in assay [1] (Homo sapiens) of 15%. The IC50 came out at 427 nM in assay [2] (Homo sapiens, KB, 72 h) and 550 nM in assay [3] (72 h). Further, the “Tubulin Polym. % inhibition at 0.3 uM” value in assay [4] is reported as 89(2) %.
Turning to `CN[C@H](C(=O)N[C@H](C(=O)N(C)[C@H](/C=C(\C)C(=O)N1CCC[C@H]1C(=O)OC)C(C)C)C(C)(C)C)C(C)(C)c1ccc(C)c(C)c1` [Example 17, N,β,β,3,4-Pentamethyl-L-phenylalanyl-N^1-{(1S,2E)-4-[(2S)-2-(methoxycarbonyl)pyrrolidin-1-yl]-1-isopropyl-3-methyl-4-oxobut-2-enyl}-N^1,3-dimethyl-L-valinamide], the IC50 in assay [1] (Homo sapiens, KB-V1, 72 h) turned out to be 363 nM; in assay [2] (Homo sapiens, KB, 72 h), 1.9 nM; in assay [3] (72 h), 15 nM. Besides, the “Tubulin Polym. % inhibition at 0.3 uM” value in assay [4] turned out to be 71%.
For `CN[C@H](C(=O)N[C@H](C(=O)N(C)[C@H](/C=C(\C)C(=O)N1CCC[C@H]1C(=O)N1CCC[C@H]1C(=O)NCc1ccccc1)C(C)C)C(C)(C)C)C(C)(C)c1ccc(C)c(C)c1` [Example 10, 1-{(2E,4S)-2,5-Dimethyl-4-[methyl(N,β,β,3,4-pentamethyl-L-phenylalanyl-3-methyl-L-valyl)amino]hex-2-enoyl}-L-prolyl-N-benzyl-L-prolinamide] the same measures were 2140 nM, 1.5 nM, 19.7 nM and 42%.
`CN[C@@H](C(=O)N[C@H](C(=O)N(C)[C@H](/C=C(\C)C(=O)N1CCOCC1)C(C)C)C(C)(C)C)C(C)(C)c1cc(C)cc(C)c1` [Example 5, N,β,β,3,5-Pentamethyl-D-phenylalanyl-N^1-[(1S,2E)-1-isopropyl-3-methyl-4-morpholin-4-yl-4-oxobut-2-enyl]-N^1,3-dimethyl-L-valinamide]: testing at 3 µM in assay [1] (Homo sapiens) gave an inhibition of 40%. Besides, the IC50 in assay [2] (Homo sapiens, KB, 72 h) is 207 nM; in assay [3] (72 h), 459 nM. The “Tubulin Polym. % inhibition at 0.3 uM” value in assay [4] is 57%.
With `CN[C@H](C(=O)N[C@H](C(=O)N(C)[C@H](/C=C(\C)C(O)c1nccs1)C(C)C)C(C)(C)C)C(C)(C)c1ccccc1` (stereo partly drawn) [Example 77, N,β,β-trimethyl-L-phenylalanyl-N-1-[(1S,2E)-4-hydroxy-1-isopropyl-3-methyl-4-(1,3-thiazol-2-yl)but-2-enyl]-N-1-,3-dimethyl-L-valinamide], the concentration for half-maximal inhibition (IC50) in assay [1] worked out at 364 nM; in assay [2] it was 13 nM; in assay [3], 19 nM. Further, in assay [4], the “Tubulin Polym. % inhibition at 0.3 uM” value was found to be 97%.
On to `CN[C@H](C(=O)N[C@H](C(=O)N(C)[C@H](/C=C(\C)C(=O)N1CCC[C@@H]1C(=O)OC)C(C)C)C(C)(C)C)C(C)(C)c1ccccc1` [Example 41, N,β,β-trimethyl-L-phenylalanyl-N^1-{(1S,2E)-4-[(2R)-2-(methoxycarbonyl)pyrrolidin-1-yl]-1-isopropyl-3-methyl-4-oxobut-2-enyl}-N^1,3-dimethyl-L-valinamide], for which the IC50 in assay [1] (Homo sapiens, KB-V1, 72 h) came out at 1100 nM; in assay [2] (Homo sapiens, KB, 72 h), 16 nM; in assay [3] (72 h), 51 nM. Further, the “Tubulin Polym. % inhibition at 0.3 uM” value in assay [4] is recorded as 96%.

The values above are taken from US7390910B2, “Compounds for treating tumors” (priority 2003, dated 2008).
